Assay results as given in ChEMBL document CHEMBL3091439, “Further discovery of caffeic acid derivatives as novel influenza neuraminidase inhibitors” (Bioorg Med Chem, 2013).

Tests used:
Influenza A virus = test: Antiviral activity against Influenza A virus (A/Chicken/Shandong/LY/08(H9N2)) infected in chicken embryo fibroblasts assessed as protection against virus-induced cytopathic effect preincubated for 1 hr followed by viral-infection measured after 2 days by MTS assay; type: functional, organism-based, Influenza A virus (A/chicken/Shandong/LY/2008(H9N2))
[1] = Cytotoxicity against chicken embryo fibroblasts infected with Influenza A virus (A/Chicken/Shandong/LY/08(H9N2)) preincubated for 1 hr followed by viral-infection measured after 2 days by MTS assay; type: cell-based, Gallus gallus, Fibroblast
Neuraminidase [2] = target: T1, Neuraminidase (Influenza A virus, UniProt B4URF0); test: Inhibition of Influenza A virus (A/Chicken/Shandong/LY/08(H9N2)) neuraminidase using 4-MU-NANA as substrate incubated for 5 mins prior to substrate addition measured after 30 to 60 mins by fluorescence assay; set-up: species or system Influenza A virus (A/chicken/Shandong/LY/2008(H9N2))
Neuraminidase [3] = target: T1, Neuraminidase; test: Inhibition of influenza A virus A/duck/China/QJ/01(H5N1) neuraminidase using 4-MU-NANA as substrate incubated for 5 mins prior to substrate addition measured after 30 to 60 mins by fluorescence assay
Neuraminidase [4] = target: T1, Neuraminidase; test: Non competitive inhibition of Influenza A virus (A/Chicken/Shandong/LY/08(H9N2)) neuraminidase using 4-MU-NANA as substrate incubated for 5 mins prior to substrate addition measured after 30 to 60 mins by Lineweaver-Burk plot analysis; set-up: species or system Influenza A virus (A/chicken/Shandong/LY/2008(H9N2))
Neuraminidase [5] = target: T1, Neuraminidase; test: Non competitive inhibition of influenza A virus A/duck/China/QJ/01(H5N1) neuraminidase using 4-MU-NANA as substrate incubated for 5 mins prior to substrate addition measured after 30 to 60 mins by Lineweaver-Burk plot analysis

| SMILES | EC50 (Influenza A virus) | CC50 at 48 h [1] | IC50 (Neuraminidase [2]) | IC50 (Neuraminidase [3]) | Ki (Neuraminidase [4]) | Ki (Neuraminidase [5]) |
| --- | --- | --- | --- | --- | --- | --- |
| CCC(CC)C(=O)Nc1cc(NC(=O)[C@H](CC(C)C)NC(=O)/C=C/c2ccc(O)c(O)c2)ccc1OCC(=O)O | 13.5 µM | 89.7 µM | 8.5 µM | 14 µM |  |  |
| CCC(CC)C(=O)Nc1cc(NC(=O)C(C)C)c(NC(=N)N)cc1OCC(=O)O |  |  | 83.2 µM |  |  |  |
| CCC(CC)C(=O)Nc1cc(NC(=O)NCc2ccccc2)ccc1OCC(=O)O |  |  | 49.7 µM | 55.6 µM |  |  |
| C#CCNC(=O)Nc1ccc(OCC(=O)O)c(NC(=O)C(CC)CC)c1 |  |  | 89.8 µM |  |  |  |
| CCC(CC)C(=O)Nc1cc(NC(=O)N[C@H](CC)CO)ccc1OCC(=O)O |  |  | > 100 µM |  |  |  |
| CCC(CC)C(=O)Nc1cc(NC(C)=O)c(NC(=O)/C=C/c2ccc(O)c(O)c2)cc1OCC(=O)O | 13.8 µM | > 100 µM | 3.2 µM | 10.7 µM | 2.7 µM |  |
| CCC(CC)C(=O)Nc1cc(NC(=O)C(C)C)c(NC(=O)/C=C/c2ccc(O)c(O)c2)cc1OCC(=O)O | 14.5 µM | > 100 µM | 5.8 µM | 14.2 µM |  |  |
| CCC(CC)CN(C(=O)/C=C/c1ccc(O)c(O)c1)c1ccc(OCC(=O)O)c(NC(=O)C(CC)CC)c1 | 56.4 µM | > 100 µM | 25.2 µM | 11.3 µM |  |  |
| CCC(CC)C(=O)Nc1cc(N(Cc2cccs2)C(=O)/C=C/c2ccc(O)c(O)c2)ccc1OCC(=O)O |  | 87.6 µM | 24.1 µM | 16.4 µM |  |  |
| CCC(CC)C(=O)Nc1cc(N(Cc2ccccc2)C(=O)/C=C/c2ccc(O)c(O)c2)ccc1OCC(=O)O |  | 78.2 µM | 16 µM | 11.4 µM |  | 32.5 µM |
| CCC(CC)C(=O)Nc1cc(NC(=O)CNC(=O)/C=C/c2ccc(O)c(O)c2)ccc1OCC(=O)O | 33.6 µM | > 100 µM | 9.2 µM | 17.6 µM |  |  |
| CCC(CC)C(=O)Nc1cc(NC(=O)[C@H](C)NC(=O)/C=C/c2ccc(O)c(O)c2)ccc1OCC(=O)O | 25.4 µM | > 100 µM | 7.9 µM | 16.1 µM |  | 9.5 µM |
| CCC(CC)C(=O)Nc1cc(NC(=O)[C@@H](NC(=O)/C=C/c2ccc(O)c(O)c2)C(C)C)ccc1OCC(=O)O | 22.9 µM | 70.4 µM | 9.4 µM | 16.6 µM |  |  |
| CCC(CC)C(=O)Nc1cc(NC(=O)[C@H](Cc2ccccc2)NC(=O)/C=C/c2ccc(O)c(O)c2)ccc1OCC(=O)O |  | 68.3 µM | 9.8 µM | 16.2 µM |  |  |
| CCC(CC)C(=O)Nc1cc(NC(C)=O)c(NC(=O)CCc2ccc(O)c(O)c2)cc1OCC(=O)O |  | 47.2 µM | 15.8 µM | 42.7 µM |  |  |
| CCC(CC)C(=O)Nc1cc(NC(=O)C(C)C)c(NC(=O)CCc2ccc(O)c(O)c2)cc1OCC(=O)O |  |  | 14.2 µM | 38.2 µM |  |  |
| CCC(CC)C(=O)Nc1cc(NC(C)=O)c(NC(=N)N)cc1OCC(=O)O |  |  | 69.1 µM | 75.8 µM |  |  |
| CCC(CC)C(=O)Nc1cc(NC(=O)C(C)C)c(N)cc1OCC(=O)O |  |  | 54.3 µM | 61.2 µM |  |  |
| CCC(CC)C(=O)Nc1cc(NC(C)=O)c(N)cc1OCC(=O)O |  |  | 46.4 µM | 58.5 µM |  |  |
| CCC(CC)C(=O)Nc1cc(NC(=N)N)ccc1OCC(=O)O |  |  | > 100 µM |  |  |  |
| CCC(CC)C(=O)Nc1cc(N)ccc1OCC(=O)O |  |  | > 100 µM |  |  |  |
| CCC(CC)C(=O)Nc1cc(NC(=O)c2ccco2)ccc1OCC(=O)O |  |  | > 100 µM |  |  |  |
| CCC(CC)C(=O)Nc1ccc(OCC(=O)O)c(NC(=O)C(CC)CC)c1 |  |  | > 100 µM |  |  |  |
| CCC(CC)C(=O)Nc1cc(NS(=O)(=O)c2ccc(C)cc2)ccc1OCC(=O)O |  |  | 78.6 µM | 86.7 µM |  |  |
